We go through 5 molecules from paper PMC11878239, “Biochemical investigations using mass spectrometry to monitor JMJD6-catalysed hydroxylation of multi-lysine containing bromodomain-derived substrates” (RSC Chemical Biology, 2025).

“And” between values parts separate entries of the source, which are not always exact repeats. Equal entries are not always repeated. Where two headings read alike, the source gives them in different places.

The subject of assay [1] is PHD2. More on the design: method as in PMID 18952043. As to conditions: PHD2 (1.0 nM), FRET assay, 2OG or Fe(II), cited from earlier work.
Assay [2] addresses T1, full-length His6-JMJD6 (Homo sapiens, UniProt Q6NYC1).
T1 construct: An enzyme mixture (10 μL) containing full-length His6-JMJD6 (5 μM; final concentration: 0.05 μM); made in house; host or cells: Escherichia coli BL21 (DE3), pET-28a(+) plasmid
Kind of assay: SPE-MS kinetics of JMJD6-catalysed lysyl hydroxylation (2OG, Fe(II), LAA, BRD-derived peptides). The class given is biochemical. As to conditions: 2OG or Fe(II) varied, BRD4_511–550 (2 μM) as substrate, 0.05 μM full-length His6-JMJD6, ambient temperature. The method, then: (§1) Recombinant human JMJD6 (full length with a N-terminal His6-tag) was produced in Escherichia coli BL21 (DE3) cells using a pET-28a(+) plasmid and purified by standard Ni(II)-affinity size-exclusion chromatography, as previously reported.[40] […] Purified JMJD6 was stored at −78 °C; fresh aliquots were used for all JMJD6 assays.
Peptides were used as 10 mM stock solutions in DMSO (Sigma-Aldrich; BioUltra grade).
Assay samples were aspirated under vacuum for 0.4 s, then loaded onto a C4 solid phase extraction (SPE) cartridge. After loading, the C4 SPE cartridge was washed with 0.1%v/v aqueous formic acid to remove non-volatile buffer salts (5 s, 1.5 mL min^−1). The peptide was eluted from the SPE cartridge with 0.1%v/v aqueous formic acid in 75/25v/v acetonitrile/water into the mass spectrometer (5 s, 1.6 mL min^−1) and the SPE cartridge re-equilibrated with 0.1%v/v aqueous formic acid (1 s, 1.25 mL min^−1).
Peaks corresponding to the m/z +5 charge states of the BRD-derived substrate peptide and the hydroxylated product peptides were extracted from the ion chromatogram and integrated using RapidFire Integrator 4.3.0 (Agilent). Peak area data were exported into Microsoft Excel and used to calculate the relative abundance of the mono-hydroxylated product peptide using the following equation: […]
The concentration of the mono-hydroxylated product peptide was calculated by multiplying the %-fraction of the mono-hydroxylated product peptide by the initial concentration of the substrate peptide employed in the assay. Initial reaction velocities were then calculated and fitted to a Michaelis–Menten plot using nonlinear regression (GraphPad Prism 5).

Assay [3] concerns KDM4C. More on the design: method as in PMID 21859681. The note with it: KDM4C (0.5 μM), ARTAQTARK(me3)STGGIA as substrate; SPE-MS; cited from earlier work.
For a further assay, the system named is AspH315–758. More on the design: method as in PMID 32107312. The note with it: AspH315–758 (0.1 μM), hFX-CP101–119 as substrate; SPE-MS; 2OG or Fe(II); cited from earlier work.
Assay [4] addresses T1, full-length His6-JMJD6. The assay can be described thus: SPE-MS kinetics of JMJD6 for O2. The class given is biochemical. The note with it: for apparent Michaelis constant K^app m for O2: SPE-MS. On the procedure:
as §1
Assays to determine the kinetic parameters of JMJD6 for O2 were performed in 2 mL gas-tight glass vials (Sigma-Aldrich) in independent triplicates. 50 mM Tris buffer (pH 7.5; 0.95 mL) was incubated in a 2 mL gas-tight glass vial at 37 °C for 30 min with a fixed O2 concentration (in N2; specified in Fig S9, ESI ^†), adjusted using a mass flow controller. […] The JMJD6-catalysed reaction was performed at 37 °C at a fixed O2 concentration and was stopped after the reaction time specified (Fig. S9, ESI ^†) by the addition of 20%v/v aqueous formic acid (100 μL) and analysed by SPE-MS. The %-concentration of O2 in N2, adjusted with a mass flow controller, was converted into an O2 concentration [μM] by calibration using a standard (i.e., y[μM] = 9.026·x[%]).[100] Data were analysed by SPE-MS as described above to calculate apparent JMJD6 kinetic parameters for O2.

A further assay concerns His6-JMJD6_1–362. As to conditions: MALDI-TOF assay, LUC7L2_267–278 as the substrate; cited from earlier work.
In the next assay the test system is NO66_183–641. More on the design: method as in PMID 34843649. As to conditions: NO66_183–641 (0.3 μM), RPL8_205–224 as substrate; SPE-MS; 2OG or Fe(II); cited from earlier work.
In assay [5] the test system is PHD2. The note with it: PHD2 versus JMJD6.
Assay [6] deals with KDM4C. The note with it: KDM4C (3 μM), H3_1–15K9me3 as substrate, oxygen consumption assay, cited from earlier work.
The subject of assay [7] is PHD2. The note with it: PHD2 (4 μM), cited from earlier work; for k cat: O2.
Assay [8] concerns type I human collagen prolyl 4-hydroxylase (CP4H-I). As to conditions: (Pro-Pro-Gly)10 as substrate, [14C]CO2 release; cited from earlier work.
In assay [9] the test system is AspH. The note with it: AspH (0.1 μM), hFX-CP101–119 as substrate, cited from earlier work.
Assay [10] relates to KDM4A. The note with it: KDM4A (1 μM), H3_1–15K9me3 as substrate; cited from earlier work.
The test system of assay [11] is phytanoyl-CoA dioxygenase (PHYH). As to conditions: PHYH (50 μM), isovaleryl-CoA as substrate, oxygen consumption assay, cited from earlier work.
In another assay the test system is FIH. As to conditions: FIH (5 μM), HIF-1α789–822 as substrate, cited from earlier work.
The test system of assay [12] is KDM4A. The note with it: KDM4A versus JMJD6.
In a further assay the test system is KDM4E. The note with it: KDM4E (2.1 μM), H3_1–15K9me3 as substrate, oxygen consumption assay, cited from earlier work.
In assay [13] the test system is AspH. As to conditions: AspH versus JMJD6.
The next assay has as its system BBOX. Further details: method as in PMID 25030770, PMID 24317009. The note with it: BBOX (0.05 μM); 1H NMR turnover assay; cited from earlier work.
The next assay has as its system JMJD5. Further details: method as in PMID 37292060. As to conditions: SPE-MS, cited from earlier work.
Where [14] appears, read: LAA 100 μM, 50 mM Tris pH 7.5, ~20 min, SPE-MS, mean ± SD n = 3.
Where [15] appears, read: O2 varied, BRD4_511–550 (2 μM) as substrate, 0.05 μM full-length His6-JMJD6, 50 mM Tris pH 7.5, 37 °C, quenched after 60 or 90 s, mean ± SD n = 3.

For the molecule `O=C(O)CCC(=O)C(=O)O` [2OG, 2-oxoglutarate], the “K^app m” value with PHD2 [1] (HIF-1α-derived biotin-[…] as substrate) is 0.35 ± 0.03 µM; with NO66_183–641 it was 0.83 ± 0.09 µM. Further, the “apparent Michaelis constant K^app m” value at full-length His6-JMJD6 [2] (setting [14]) worked out at 23.3 ± 2.5 µM. Moreover, the “k^app cat” value in the assay with KDM4C [3] was 0.075 ± 0.001 s⁻¹; in the assay on AspH315–758, 0.19 ± 0.03 s⁻¹. Also, the “apparent Michaelis constant K^app m for O2” value on full-length His6-JMJD6 [4] (setting [15]) worked out at 74 ± 14 µM. Besides, in the assay on His6-JMJD6_1–362, the “K^app m for 2OG” value is ~31 µM.

On to `O=O` [O2, dioxygen], for which the “K^app m (O2): fold greater than that of JMJD6” value in the assay with PHD2 [5] is ~6 fold; with KDM4A [12] it was ~2 fold; in the assay with AspH [13] it was ~6 fold. For the same molecule, the “K m for O2” value in the assay on KDM4C [6] was 158 ± 13 µM; with PHD2 [7] (HIF-1α395–413 as substrate), >450 µM; in the assay on PHD2 [7] (HIF-1α556–574 as substrate) it was 460 ± 30 µM; in [8], ~40 µM; with AspH [9], 426 ± 73 µM; in the assay with KDM4A [10] it was 173 ± 23 µM. In addition, the “K m for O2” value is 93 ± 43 µM in [11], 110 ± 30 µM in the assay with FIH and 197 ± 16 µM in the assay on KDM4E. In addition, the k cat was 0.043 ± 0.001 s⁻¹ with KDM4C [6] (O2); 0.028 ± 0.001 s⁻¹ with PHD2 [7] (HIF-1α395–413 as substrate); 0.06 ± 0.01 s⁻¹ in the assay on PHD2 [7] (HIF-1α556–574 as substrate); 0.23 ± 0.04 s⁻¹ with AspH [9] (O2); 0.016 s⁻¹ in [11] (O2); 0.56 ± 0.04 s⁻¹ in the assay with FIH (O2). The k cat in the assay on KDM4E (O2) was 0.067 ± 0.001 s⁻¹. The “K^app m (O2) of JMJD6: fold greater than CP4H-I” value at full-length His6-JMJD6 [4] (JMJD6/BRD4_511–550 versus CP4H-I (ref 26)) was ~2 fold. Also, the “K^app m (O2) of JMJD6: fold greater than KDM6B” value on full-length His6-JMJD6 [4] (JMJD6/BRD4_511–550 versus KDM6B (ref 96)) is ~4 fold. Further, the “apparent Michaelis constant K^app m for O2” value at full-length His6-JMJD6 [4] (setting [15]) was 69.8 ± 11.4 µM and 74 ± 14 µM. Besides, the “apparent turnover number k^app cat” value on full-length His6-JMJD6 [4] (setting [15]) turned out to be 0.12 ± 0.01 s⁻¹. Further, on full-length His6-JMJD6 [4] (O2 varied, BRD4_511–550 (2 μM) as substrate, 0.05 μM full-length His6-JMJD6, pH 7.5, 37 °C, n = 3), the “specificity constant kcat/Km” value stood at 1700 ± 400 M⁻¹ s⁻¹.

Regarding `C[N+](C)(C)CCCC(=O)[O-]` [γ-butyrobetaine], in the assay with BBOX, the “K m (substrate)” value is 4.2 µM and the “k cat (substrate)” value is 0.83 s⁻¹.

For the molecule RSP6_128–148: JMJD5 substrate, in the assay with JMJD5, the “k cat/Km (substrate)” value is 11500 ± 6300 M⁻¹ s⁻¹.

On to “ammonium iron(II) sulfate hexahydrate [Fe(II)]”, for which the “K^app m” value with PHD2 [1] (HIF-1α-derived biotin-DLEMLAPYIPMDDDFQL as substrate) was 0.89 ± 0.07 µM. Further, on full-length His6-JMJD6 [2] (setting [14]), the “apparent Michaelis constant K^app m” value came to 0.19 ± 0.02 µM and the “apparent maximum velocity v^app max” value turned out to be 3.6 ± 0.1 nM/s. Besides, the “apparent turnover number k^app cat” value on full-length His6-JMJD6 [2] (pH 7.5, calculated from v^app max assuming active JMJD6 = total enzyme, n = 3) was 0.072 ± 0.002 s⁻¹. For the same molecule, on full-length His6-JMJD6 [2] (pH 7.5, n = 3), the “specificity constant kcat/Km” value is 380000 ± 50000 M⁻¹ s⁻¹. Moreover, in the assay with JMJD5 (RSP6_128–148 as substrate, 2OG or Fe(II)), the “k cat/Km” value is 38500 ± 6200 M⁻¹ s⁻¹. In the assay with AspH315–758, the “K^app m” value was 1.42 ± 0.16 µM, the “k cat/Km” value is 130000 ± 30000 M⁻¹ s⁻¹ and the “k^app cat” value was 0.19 ± 0.03 s⁻¹. In addition, the “K^app m” value in the assay with NO66_183–641 was 0.014 ± 0.001 µM.
